Assay results taken from patent US7517911B2, “3,4,5-trimethoxy phenyl-based ester compound and preparation method thereof and whitening cosmetic composition containing the same” (Amorepacific Corporation, priority 2001, dated 2009).

Assays:
[1] = system: Mel-Ab cells; assay: Melanin-inhibiting effect in the melanocytes (Dooley method); assay type: cell-based, C57BL/6; details: 10 ppm in culture medium, absorbance at 400 nm, compared with cells cultured without compound
[2] = system: human skin; assay: Whitening effect on the human skin (UVB-induced pigmentation, Chromameter); assay type: in vivo; details: applied for 10 weeks after UVB, 12 male volunteers
Text: The brachia of twelve (12) healthy volunteers (males) were attached with opaque tape having 1.5 cm diameter holes, and then irradiated with UVB (ultraviolet rays B) in 1.5˜2 times the intensity of the minimum amount to form erythema for each volunteer, to induce pigmentation. After irradiating the UVB, 1% diluted solutions of the ester compounds of Examples 1˜6 (solvent was 1,3-butyleneglycol:ethanol=7:3) were applied on the above treated brachia for ten (10) weeks (the above 1% diluted solution was not applied on one brachium), and the colors of the skins thereof were measured by Chromameter CR2002 (manufactured by Minolta; Japan) per every one week. The difference of “L”, that is, “Δ L”, the amount of the increase of brightness of skin compared with those not applied with diluted solution, was measured. For reference, measurements for the cases that 3% kojic acid and vehicle (solvent) were applied were performed.

[3] = system: human skin; assay: Test for application to human skin (patch test, CTFA Guideline); assay type: in vivo; details: for The number of volunteers having reaction, mark +: + = Intense erythema; for The number of volunteers having reaction, mark + / The number of volunteers having reaction, mark ++ / The number of volunteers having reaction, mark +++ / The number of volunteers having reaction, mark ± / The number of volunteers having reaction, mark −: 1% in patch base, n = 30; for The number of volunteers having reaction, mark ++: ++ = Intense erythema with edema; for The number of volunteers having reaction, mark +++: +++ = Intense erythema with edema &vesicle; for The number of volunteers having reaction, mark ±: ± = Mild erythema; for The number of volunteers having reaction, mark −: − = No visible reactions; for Average reaction (n = 30): {(grade × number of volunteers) × 100}/{maximum grade × total volunteers × number of test}, non-irritation standard value 1.0
Protocol: Each of the ester compounds of Examples 1˜6 were dissolved in a patch base shown in Table 8 to be 1% concentration respectively, to prepare test samples. 20 μl of each test sample was dropped in a Finn Chamber to make a patch, and the patch was attached to antebrachial skin (test region) and fixed with micro tape. The patch was attached for 24 hours, and after removing the patch, the test region was checked with marking pen, and then the region was observed after 1 and 24 hours.

[4] = system: rabbit skin; assay: Test for skin irritation on animals (Draize P.I.I.); assay type: in vivo, rabbits; details: 1% diluted solution, 0.5 ml; for P.I.I.: measured 24 and 72 hours after application
Protocol: The hairs on the backs of six (6) healthy male rabbits were removed. After making areas of 2.5 cm×2.5 cm on the left and right sides of the back of each rabbit, nothing was applied on the left area of the back as control area, and 1% diluted solutions of the ester compounds of Examples 1˜6 (solvent was 1,3-butyleneglycol:ethanol=7:3) were applied on the right area of the back of the rabbits with an amount of 0.5 ml, one compound for each rabbit respectively. Irritations such as erythema, rash or edema were measured 24 hours and 72 hours after the application. In addition, the degree of irritation was determined according to the conventional, “P.I.I.” (Primary Irritation Index) of Draize, and the results are shown in Table 6.

[5] = system: guinea pig skin; assay: Test for radiation toxicity (UVA); assay type: in vivo
Protocol: The hairs on the backs of ten (10) guinea pigs were removed. After fixing the pigs, the back was divided into six (6) areas each having 2.0 cm×2.0 cm area, three (3) areas on the left side and three (3) on the right side. Right side areas were control areas prevented from being radiated, and left side areas were radiation areas. 1% (w/v) diluted solutions of ester compounds of Examples 1˜6 were applied thereto with an equal amount of 50 μl respectively, while using vehicle (1,3-butyleneglycol:ethanol=7:3) as a negative control, and using 0.1% 8-MOP(methoxypsoralene) as a positive control. After 30 minutes later, left sides of the back of the pig was shielded from light by aluminum foil, and UVA(320˜380 nm) was radiated from 10 cm distant with an final energy of 15J/cm^2 by using ultraviolet radiation device (waldmann). The skin of the guinea pig was observed after 24, 48 and 72 hours later. The irritation was graded as shown in table 5 with 0˜4 grades according to the intensity of the erythema and edema, and the sum was calculated. In the evaluation, the maximum value of the measurement that performed after 24, 48 and 72 hours later was chosen, and then the Irritation Index of an animal skin was calculated according to mathematical formula 1, and finally, the Radiation Toxicity Index was calculated according to mathematical Formula 2. Irritation Index of an animal skin=(Σ maximum value of erythema index+Σ maximum value of edema index)/number of animals [Mathematical Formula 1] Radiation Toxicity Index=(Irritation Index of an animal skin in an area of UV radiation)−(Irritation Index of an animal skin in an area UV non-radiation) [Mathematical Formula 2]

[6] = 1% diluted solution (1,3-butyleneglycol:ethanol=7:3)
[7] = 1% (w/v) solution 50 μl, UVA 15J/cm^2, observed 24, 48 and 72 hours
[8] = 1% (w/v) solution, UVA 15J/cm^2

Row | Compound | Melanin generation ratio (%) [1] | Increase of brightness of skin (Δ L) [2, 6] | The number of volunteers having reaction, mark + ([3]; 24 hours later) | The number of volunteers having reaction, mark ++ ([3]; 24 hours later) | The number of volunteers having reaction, mark +++ ([3]; 24 hours later) | The number of volunteers having reaction, mark ± ([3]; 24 hours later) | The number of volunteers having reaction, mark − ([3]; 24 hours later) | The number of volunteers having reaction, mark + ([3]; 48 hours later) | The number of volunteers having reaction, mark ++ ([3]; 48 hours later) | The number of volunteers having reaction, mark +++ ([3]; 48 hours later) | The number of volunteers having reaction, mark ± ([3]; 48 hours later) | The number of volunteers having reaction, mark − ([3]; 48 hours later) | Average reaction (n = 30) [3] | Determination (skin irritation) [4] | P.I.I. [4] | Determination (radiation toxicity) ([5]; in vivo) | Radiation Toxicity Index ([5]; in vivo) | Radiation Toxicity Index [5, 7] | Determination (radiation toxicity) [5, 8] | Increase of brightness of skin (Δ L) ([2]; 3% kojic acid)
1 | 2-methyl-5-(methylethylphenyl)-2-(3,4,5-trimethoxyphenyl)acetate [Example 2] | 51.2% | 1.51 ± 0.13 | 0 | 0 | 0 | 0 | 30 | 0 | 0 | 0 | 1 | 29 | 0.42 | No irritation | 0.345 | Radiation Non-Toxic | 0 | – | – | –
2 | 5-methyl-2-(methylethyl)phenyl-3-(3,4,5-trimethoxyphenyl)propanoate [Example 5] | 50.0% | 1.40 ± 0.12 | 0 | 0 | 0 | 0 | 30 | 0 | 0 | 0 | 0 | 30 | 0.00 | No irritation | 0.375 | Radiation Non-Toxic | 0 | – | – | –
3 | COc1cc(C=CC(=O)O)cc(OC)c1OC [3,4,5-trimethoxy cinnamic acid, reference compound] | 96.3% | – | – | – | – | – | – | – | – | – | – | – | – | – | – | – | – | – | – | –
4 | COc1cc(CCC(=O)O)cc(OC)c1OC [3,4,5-trimethoxy hydrocinnamic acid, reference compound] | 92.5% | – | – | – | – | – | – | – | – | – | – | – | – | – | – | – | – | – | – | –
5 | COc1cc(CC(=O)O)cc(OC)c1OC [3,4,5-trimethoxy phenylacetic acid, reference compound] | 95.8% | – | – | – | – | – | – | – | – | – | – | – | – | – | – | – | – | – | – | –
6 | Cc1ccc(C(C)C)cc1O [Carvacrol, carvacrol, reference compound] | 91.5% | – | – | – | – | – | – | – | – | – | – | – | – | – | – | – | – | – | – | –
7 | COc1cc(CC(=O)Oc2cc(C)ccc2C(C)C)cc(OC)c1OC [Example 1] | 47.8% | 1.71 ± 0.25 | 0 | 0 | 0 | 2 | 28 | 0 | 0 | 0 | 0 | 30 | 0.83 | No irritation | 0.375 | – | – | 0 | Radiation Non-Toxic | –
8 | COc1cc(/C=C/C(=O)Oc2cc(C)ccc2C(C)C)cc(OC)c1OC [Example 3, 5-methyl-2-(methylethyl)phenyl(2E)-3-(3,4,5-trimethoxyphenyl)-2-propanoate] | 45.6% | 1.38 ± 0.11 | 0 | 0 | 0 | 0 | 30 | 0 | 0 | 0 | 0 | 30 | 0.00 | No irritation | 0.375 | – | – | 0 | Radiation Non-Toxic | –
9 | COc1cc(/C=C/C(=O)Oc2cc(C(C)C)ccc2C)cc(OC)c1OC [Example 4, 2-methyl-5-(methylethyl)phenyl(2E)-3-(3,4,5-trimethoxyphenyl)-2-propanoate] | 58.9% | 1.22 ± 0.18 | 0 | 0 | 0 | 1 | 29 | 0 | 0 | 0 | 0 | 30 | 0.42 | No irritation | 0.350 | – | – | 0 | Radiation Non-Toxic | –
10 | COc1cc(CCC(=O)Oc2cc(C(C)C)ccc2C)cc(OC)c1OC [Example 6, 2-methyl-5-(methylethyl)phenyl-3-(3,4,5-trimethoxyphenyl)propanoate] | 48.1% | 1.49 ± 0.11 | 0 | 0 | 0 | 0 | 30 | 0 | 0 | 0 | 0 | 30 | 0.00 | No irritation | 0.315 | – | – | 0 | Radiation Non-Toxic | –
11 | O=c1cc(CO)occ1O [Kojic acid, kojic acid, reference compound] | 88.0% | – | – | – | – | – | – | – | – | – | – | – | – | – | – | – | – | – | – | 0.99 ± 0.11
12 | Cc1ccc(C(C)C)c(O)c1 [Thymol, thymol, reference compound] | 94.5% | – | – | – | – | – | – | – | – | – | – | – | – | – | – | – | – | – | – | –
